Source: patent US20200237700A1, “METHODS OF REDUCING OR PREVENTING OXIDATION OF SMALL DENSE LDL OR MEMBRANE POLYUNSATURATED FATTY ACIDS” (Amarin Pharmaceuticals Ireland Limited, priority 2015, published 2020)

Experiments:
[1] = system: human sdLDL; experiment: Copper-induced sdLDL oxidation, TBARS (Example 7); type: biochemical; details: for effect on sdLDL oxidation as compared to vehicle-treated controls: 10 μM, 1 hour
Description: (§1) An experiment to study the antioxidant effect of EPA in LDL and small dense […] performed. […] Fenofibrate, gemfibrozil, and niacin were purchased from Sigma-Aldrich. […] Vitamin E was also incubated with sample aliquots as a positive control.

[2] = Glucose-induced membrane lipid peroxidation (LOOH) in multilamellar vesicles, CHOD-iodide assay (Example 4); type: biochemical
Description: Vitamin E (α-tocopherol) was also purchased from Sigma-Aldrich and prepared in ethanol at 1.0 mM (ε=3.06×10^4 M^−1 cm^−1 at 294 nm) just prior to experimental use. […] All test compounds were further diluted in ethanol or aqueous buffer as needed. Glucose was prepared in saline buffer (0.5 mM HEPES, 154 mM NaCl, pH 7.3) at 11.0 mM (200 mg/dL). CHOD-iodide color reagent (stock) was prepared, with slight modification, as described by from El-Saadani et al. (J. […] Samples were shell-dried under nitrogen gas and placed under vacuum for 1 h to remove residual solvent. […] Lipid suspensions were then vortexed for 3 min at ambient temperature to form MLVs. All MLV samples were subjected to time-dependent autoxidation by incubating at 37° C. in an uncovered, shaking water bath. This method allows lipid peroxidation to occur gradually without requiring the use of exogenous initiators. Small aliquots (5-100 μL) of each sample were removed, immediately following MLV preparation (0 hour) and after exposing samples to oxidative conditions for 72 or 96 hour, and combined with 1.0 mL of activated CHOD-iodide color reagent. Aliquot volume was reduced with each successive time point to ensure that spectrophotometric readings were within the optimal adsorption range. Test samples were covered and incubated in darkness at room temperature for at least 4 hr. Sample absorbances were then measured against a CHOD blank at 365 nm using a Beckman DU-640 spectrophotometer. The CHOD colorimetric assay is based on the oxidation of iodide (I^−) by lipid hydroperoxide (LOOH) to form triiodide (I3^−), the quantity of which is directly proportional to the amount of LOOH present in the lipid sample. The molar absorptivity (E) of I3^− is 2.46×10^4 M^−1 cm^−1 at 365 nm. […] The concentration of glucose selected was consistent with previous experimental studies of hyperglycemia under controlled laboratory conditions or observed in well-defined animal models of Type II diabetes following a glucose challenge. […] Values in FIG. 1 are mean±S.D. (N=6). EPA inhibited the peroxidative effects of glucose by 88% and 86% at 72 and 96 hours, respectively, which was highly significant (p<0.001) as compared to glucose treatment alone. […] Overall ANOVA-0 hour data: p=0.6655, F=0.4185; 72 hour data: p<0.0001, F=428.72; 96 hour data: p<0.0001, F=322.01.

[3] = system: human LDL (unfractionated); experiment: Copper-induced unfractionated LDL oxidation, TBARS 1 hr (Example 7); type: biochemical; details: 10 μM
Description: as §1

[4] = system: sdLDL isolated from human subjects under hyperglycemia; experiment: Glucose-induced sdLDL oxidation, TBARS/MDA (Example 10); type: biochemical; details: glucose 200 mg/dL; for glucose-induced sdLDL oxidation: 10.0 μM
Description: Vitamin E (α-tocopherol) purchased from Sigma-Aldrich was prepared in ethanol at 1.0 mM (c=3.06×10^4 M^−1 cm^−1 at 294 nm) prior to experimental use. Test compounds were further diluted in ethanol or aqueous buffer as needed. Phosphate Buffered Saline (PBS) purchased from Sigma-Aldrich was prepared in double distilled water at 10 mM (138 mM NaCl, 2.7 mM KCl, pH 7.4). […] Lipid oxidation was measured by the colorimetric detection of malondialdehyde (MDA), a marker of oxidative stress. Data were presented as mean±SD for (n) separate samples or experiments. Differences between groups were analyzed using the unpaired, two-tailed Student's t-test (for comparisons between only two groups) or ANOVA followed by Student-Newman-Keuls multiple comparisons post hoc analysis (for comparisons between three or more groups).

[5] = Small angle x-ray diffraction of cholesterol-enriched POPC model membranes, cholesterol domain peak intensity (Example 9); type: physicochemical; details: drug-to-phospholipid mole ratio 1:30
Description: The fatty acid stock solutions were stored at −20° C. until use. […] Samples were shell-dried under nitrogen gas and placed under vacuum for 3 hours to remove residual solvent at room temperature. After desiccation, each sample was resuspended in saline buffer (0.5 mM HEPES, 154 mM NaCl, pH 7.3) to yield a final phospholipid concentration of 2.5 mg/mL. Lipid suspensions were then vortexed for 3 minutes at ambient temperature to form MLVs. Membrane lipid vesicles were oriented for x-ray diffraction analysis as described by others (e.g., Herbette et al., Biophys. […] Briefly, a 100 μL aliquot of each MLV preparation (containing 250 μg MLV) was transferred to a Lucite® sedimentation cell fitted with an aluminum foil substrate designed to collect MLVs into a single membrane pellet upon centrifugation. […] After centrifugal orientation, sample supernatants were aspirated and aluminum foil substrates, each supporting a single membrane pellet, were removed from the sedimentation cells. Sample pellets were dried for 5-10 minutes at ambient conditions, mounted onto curved glass supports, and placed in hermetically-sealed, brass or glass containers (for immediate analysis or temporary storage, respectively). All x-ray diffraction experiments were conducted at 20° C., 74% relative humidity. The latter was established by exposing membrane samples to saturated solutions of L-(+)-tartaric acid (K2C4H4O6.½H2O) for at least 1 hour prior to experimental analysis. Oriented membrane samples were aligned at grazing incidence with respect to a collimated, mono-chromatic CuKα x-ray beam (Kα1 and Kα2 unresolved; λ=1.54 Å) produced by a Rigaku Rotaflex RU-200, high-brilliance microfocus generator (Rigaku-MSC, The Woodlands, Tex.) as previously described (Mason et al., Biophys. J., vol. 55(4), pages 769-778 (1989)). The samples were initially subjected to x-ray diffraction analysis at least 12 hours after formation of the membrane pellets and retested for up to several days. […] Collimation of the x-ray beam was achieved using a single Franks mirror. Diffraction data were collected on a one-dimensional, position-sensitive electron detector (Hecus X-ray Systems, Graz, Austria) at a sample-to-detector distance of 150 mm from the sample site. […] Routines written in Origin 8.6 (OriginLab Corporation, Northampton, Mass.) were used to determine total peak area (associated with all diffraction peaks in a given pattern) against which the second-order cholesterol domain peak was normalized. […] Differences between groups were analyzed using the two-tailed, Student's t-test (for comparisons between only two groups) or ANOVA followed by Dunnett or Student-Newman-Keuls multiple comparisons post-hoc analysis (for comparisons between three or more groups). […]

[6] = system: human sdLDL; experiment: Copper-induced sdLDL oxidation, TBARS after 2 hr (Example 6); type: biochemical
Description: An experiment to study the antioxidant effect of EPA in small dense […] performed. […] Vitamin E (α-tocopherol) was purchased from Sigma-Aldrich and prepared in ethanol at 1.0 mM (ε=3.06×10^4 M^-1 cm^-1 at 294 nm) just prior to experimental use. All test compounds were further diluted in ethanol or aqueous buffer as needed. Venous blood was collected from healthy volunteers into vacutainer tubes containing sodium EDTA. Plasma was separated by centrifugation at 3000 g for 25 min at 4° C. and adjusted to a density of 1.020 g/mL with KBr. Triglyceride-rich lipoproteins (TGRL) and LDL fractions were then isolated by sequential centrifugation at 70,000 rpm at 4° C. in a Beckman LE-80 ultracentrifuge using a Beckman 50.4Ti rotor (Beckman Coulter, Inc., Fullerton, Calif.). The TGRL fraction (with a relative density of <1.020) was aspirated from the top of the centrifugate and discarded, leaving an LDL-enriched […] relative density of 1.020 to 1.063). […] The sdLDL subfraction was retained for additional experimentation. Plasma and lipoprotein fractions were maintained at 4° C. and protected from excessive exposure to light. Prior to oxidation experiments, EDTA was removed from the lipoprotein fraction using PD-10 desalting columns (GE Healthcare, Piscataway N.J.). After equilibration of the column with phosphate buffered saline (PBS), 2.5 mL of the lipoprotein fraction was loaded on the column and the flow-through discarded. The lipoprotein was then eluted with 3 mL of PBS. The LDL fractions were further diluted with PBS to obtain a 100 μg/mL apoB100 concentration. […] Data are presented as mean±S.D. for (N) separate samples or treatment groups. Differences between groups were analyzed using the two-tailed, Student's t-test (for comparisons between only two groups) or ANOVA followed by Dunnett or Student-Newman-Keuls multiple comparisons post-hoc analysis (for comparisons between three or more groups).

[7] = Small angle x-ray diffraction of glucose-treated model membranes, cholesterol domain peak intensity (Example 4); type: physicochemical; details: any experimental time point; 1:30 drug-to-phospholipid; glucose 200 mg/dL
Description: After centrifugal orientation, sample supernatants were aspirated and aluminum foil substrates, each supporting a single membrane pellet, were removed from the sedimentation cells. […] All x-ray diffraction experiments were conducted at 20° C., 74% relative humidity.
Oriented membrane samples were aligned at grazing incidence with respect to a collimated, mono-chromatic CuKα x-ray beam (Kα1 and Kα2 unresolved; λ=1.54 Å) produced by a Rigaku Rotaflex RU-200, high-brilliance microfocus generator (Rigaku-MSC, The Woodlands, Tex.) as previously described (Mason et al., Biophys. J., vol. 55(4), pages 769-778 (1989)).
Routines written in Origin 8.6 (OriginLab Corporation, Northampton, Mass.) were used to determine total peak area (associated with all diffraction peaks in a given pattern) against which the second-order cholesterol domain peak was normalized.

[8] = system: unfractionated LDL isolated from human plasma; experiment: Copper-induced oxidation of unfractionated LDL, TBARS (Example 6); type: biochemical; details: 1.0 μM to 10.0 μM; data not shown
Description: All test compounds were further diluted in ethanol or aqueous buffer as needed. Venous blood was collected from healthy volunteers into vacutainer tubes containing sodium EDTA. […] Plasma and lipoprotein fractions were maintained at 4° C. and protected from excessive exposure to light. Prior to oxidation experiments, EDTA was removed from the lipoprotein fraction using PD-10 desalting columns (GE Healthcare, Piscataway N.J.). After equilibration of the column with phosphate buffered saline (PBS), 2.5 mL of the lipoprotein fraction was loaded on the column and the flow-through discarded. The lipoprotein was then eluted with 3 mL of PBS. The LDL fractions were further diluted with PBS to obtain a 100 μg/mL apoB100 concentration. […] Differences between groups were analyzed using the two-tailed, Student's t-test (for comparisons between only two groups) or ANOVA followed by Dunnett or Student-Newman-Keuls multiple comparisons post-hoc analysis (for comparisons between three or more groups).

[9] = system: sdLDL from plasma of healthy volunteers; experiment: Time-dependent sdLDL oxidation, MDA formation over 4 hours (Example 13); type: biochemical, human; details: entire experimental time course (4 hours)
Description: sdLDL was isolated from the plasma of healthy volunteers by iodixanol density gradient centrifugation and adjusted to a final apolipoprotein concentration of 2 mg/mL. Sample aliquots (100 μg apolipoprotein) were incubated with EPA, DHA, or EPA+DHA (each at 10 μM) for 30 minutes at 37° C. and then treated with 10 μM CuSO4 to initiate lipid oxidation. sdLDL oxidation was measured spectrophotometrically as a function of malondialdehyde (MDA) formation at various intervals over 4 hours. Vitamin E was also tested as a positive control. Experiments were conducted in triplicate and reported as mean±SD.

CC(C)c1c(C(=O)Nc2ccccc2O)c(-c2ccccc2)c(-c2ccc(F)cc2)n1CC[C@@H](O)C[C@@H](O)CC(=O)O [ATM, Atorvastatin ortho- (o-) hydroxy (active) metabolite]
inhibition of sdLDL oxidation vs vehicle ([1]; ATM 0.5 μM, alone or in combination with EPA 1.0 μM, 1 hr): 5±5%
inhibition of sdLDL oxidation vs vehicle ([1]; each agent at 1.0 μM, 1 hr): 18±5%
antioxidant effects of separate treatments (LOOH formation) ([2]; each at 1.0 μM, glucose 200 mg/dL, 96 hours): potent antioxidant effects

Cc1ccc(C)c(OCCCC(C)(C)C(=O)O)c1 [gemfibrozil]
effect on sdLDL oxidation as compared to vehicle-treated controls [1]: no significant effect
effect on unfractionated LDL oxidation as compared to vehicle-treated controls [3]: no significant effect
glucose-induced sdLDL oxidation [4]: did not inhibit glucose-induced sdLDL oxidation
effect on cholesterol domains / domain size [5]: no significant changes in cholesterol domain size

Cc1c(C)c2c(c(C)c1O)CC[C@@](C)(CCC[C@H](C)CCC[C@H](C)CCCC(C)C)O2 [vitamin E, α-tocopherol]
effect on sdLDL oxidation as compared to vehicle-treated controls [1]: no significant effect
reduced TBARS levels compared to vehicle-treated controls ([6]; 10.0 μM, 10 μM CuSO4): 26%
sdLDL oxidation ([6]; concentrations below the highest (10.0 μM)): did not inhibit sdLDL oxidation
effect on LOOH formation / lipid peroxidation ([2]; 72- and 96-hour time points, 1:30 drug-to-phospholipid mole ratio, glucose): no significant effect
effect on unfractionated LDL oxidation as compared to vehicle-treated controls [3]: no significant effect
effect on cholesterol domain formation as compared to control [7]: no significant effect
LDL oxidation [8]: did not inhibit LDL oxidation at any concentration
glucose-induced sdLDL oxidation [4]: failed to inhibit sdLDL oxidation
increased sdLDL oxidation as compared to glucose-treated controls [4]: 63%
antioxidant effect on sdLDL oxidation [9]: no significant antioxidant effect

CC(C)c1c(C(=O)Nc2ccccc2)c(-c2ccccc2)c(-c2ccc(F)cc2)n1CC[C@@H](O)C[C@@H](O)CC(=O)O [atorvastatin]
effect on sdLDL oxidation as compared to vehicle-treated controls [1]: did not have any significant antioxidant activity
inhibited TBARS formation / sdLDL oxidation vs vehicle ([1]; each agent at 10 μM, 1 hr): 0.1±7%
effect on unfractionated LDL oxidation as compared to vehicle-treated controls [3]: did not have any significant antioxidant activity
